The test system of series [1] is gastric epithelial cell. The series is described as follows: Gastric epithelial cell stabilizing effect in pylorus-ligated rats (NANA in gastric juice). The settings on record: male Donryu rats, oral three times a day for five days, 8 hours after pylorus ligation; for NANA content in gastric juice, free: control 22.5, * P < 0.05 vs control (V, VI and VII all marked *); for NANA content in gastric juice, bound: control 93.3; for NANA content in gastric juice, bound / NANA content in gastric juice, total: * P < 0.05 vs control (only V marked *); for NANA content in gastric juice, total: control 115.8. Format: in vivo, rat. The protocol:
The investigation of the gastric epithelial cell stabilizing effects of these compounds were examined in rats. Male Donryu strain rats, weighing about 200 g, were given the test compound orally three times a day for five days. On the fifth day the animals were fasted for 24 hours, and submitted to pylorus ligation under light ether anesthesia. The test compounds were given just after pylorus ligation orally. After 8 hours of ligation, the rats were sacrificed and the volume of gastric juice was measured. After centrifuging 6 ml of this gastric juice at 5000 r.p.m., 2 ml of the resulting supernatant was submitted to N-acetyl neuraminic acid (NANA) determination according to the method of D. Aminoff (D. Aminoff et al., Biochem. J. […], 384-392 (1961)).

Series [2] has as its system stress ulcer. The series is described as follows: Stress ulcer in rats (anti-ulcerative action). It counts as in vivo, rat. The note with it: 100 mg/kg per os, male Wister rats, 30 minutes before the stress; stressing 18 hours; control 4.6 ± 0.70. As to the method:
To study the anti-ulcerative actions of these compounds of the present invention further, the stress ulcer was selected. Male Wister rats, weighing 200-250 g were subjected to stress according to Takagi et al. (Chem. Pharm. Bull 12, 465, 1964). These compounds were suspended in 1% methyl cellulose and were administered to the rat at a dose of 100 mg/kg body weight per os, 30 minutes before the stress. After stressing for 18 hours, the animals were killed by a blow on the head. The removed stomach was filled with 1% formalin solution, placed in 1% formalin solution for 15 minutes and was then cut open along the greater curvature and examined for lesion to obtain the ulcer index. The ulcer index was determined in six grades (0-5; 5 implying perforation of stomach).

The test system of series [3] is carragenin-induced rat paw edema. The series is described as follows: Carragenin-induced rat paw edema (anti-inflammatory effect). It counts as in vivo. The note with it: 300 mg/kg oral, Wister rat, maximum percentage inhibition during 4 hours after administration. As to the method: The anti-inflammatory effect of these compounds on carragenin-induced rat paw edema was examined in accordance with the method of C. A. Winter (J. Pharmacol. 141, 369, […]. The compounds of the present invention were suspended in 1% methyl-cellulose and orally administered at a dose of 300 mg/kg to Wister rat, weighing about 140 g. The maximum percentage inhibition during 4 hours after administration was calculated as follows: [formula] The results are shown in Table 3.

The nature of series [4]: Acute toxicity in ddY strain mice, up and down method, oral. The settings on record: mouse, in vivo, suspended in 1% methyl cellulose, given orally, observation 24 hours, read-out: LD50 (per os). The protocol:
Acute toxicity of the compounds of the present invention in ddY strain mice was determined by the up and down method, with observation for 24 hours. The compounds in this experiment were suspended in 1% methyl cellulose and given orally.

This is an account of results in patent US4520029A, “Farnesene derivatives, mucosal stabilizing compositions and method of manufacturing the same” (Kotobuki Seiyaku Co., Ltd., priority 1980, dated 1985).

Broadly, the LD50 is the dose at which mortality reaches 50%. For `CC(C)=CCCC(C)=CCCC(C)=CCNC(=O)CC=C(C)CCC=C(C)CCC=C(C)C` [Compound VI, N-Farnesyl farnesyl carboxamide], in series [1], the “NANA content in gastric juice, free” value was found to be 18.3 µg/mL; the “NANA content in gastric juice, bound” value is 87.4 µg/mL; the “NANA content in gastric juice, total” value was determined as 105.7 µg/mL. For the same compound, in series [2], the “Score (ulcer index, six grades 0-5; 5 implying perforation of stomach)” value is 2.3 ± 0.72. In series [3], this compound displayed a Maximum inhibition of 30.1%. The LD50 at 24 h in series [4] was determined as 18700 mg/kg.

Consider `CC(C)=CCCC(C)=CCCC(C)=CCOC(=O)CC=C(C)CCC=C(C)CCC=C(C)C` [Compound V, Farnesyl farnesyl carboxylate], for which, in series [1], the “NANA content in gastric juice, free” value came to 17.6 µg/mL; the “NANA content in gastric juice, bound” value came to 74.5 µg/mL; the “NANA content in gastric juice, total” value was determined as 92.1 µg/mL. Moreover, the “Score (ulcer index, six grades 0-5; 5 implying perforation of stomach)” value in series [2] is given as 1.8 ± 0.50. The same compound registered a Maximum inhibition in series [3] of 35.8%. In addition, the 50% lethal dose (LD50) at 24 h in series [4] is 24500 mg/kg.

For the compound `CC(C)=CCCC(C)=CCCC(C)=CCNC(=O)OCC=C(C)CCC=C(C)CCC=C(C)C` [Compound VII, N-Farnesyl farnesyl carbamate], in series [1], the “NANA content in gastric juice, free” value turned out to be 16.7 µg/mL; the “NANA content in gastric juice, bound” value came to 81.3 µg/mL; the “NANA content in gastric juice, total” value stood at 98.3 µg/mL. For the same compound, the “Score (ulcer index, six grades 0-5; 5 implying perforation of stomach)” value in series [2] was found to be 2.1 ± 0.41. Also, the Maximum inhibition in series [3] is on record as 23.7%. Besides, in series [4], the LD50 at 24 h came to 20200 mg/kg.
